Data reported in patent US20040053962A1, “Methods for inhibiting proliferation and inducing apoptosis in cancer cells” (priority 2003, published 2004).

What was measured:
Assay type in all cases: cell-based
[1] = tested on: Bcl-2 in MCF-7 breast cancer cells; experiment: Bcl-2 expression by western blotting; details: MCF-7, LY293111 500 nM
[2] = tested on: MiaPaCa-2 pancreatic cancer cells; experiment: Morphological changes by phase-contrast microscopy, MiaPaCa-2; details: MiaPaCa-2, 250 nM, as early as 4 hours after treatment; interpreted as reflecting apoptosis
Procedure: Morphological changes using light microscope. Pancreatic cancer cells grown in 75 cm^2 flasks were treated with different concentrations of LY293111 for different periods of time. They were then viewed by phase-contrast microscopy, and photographs were taken.

MiaPaCa-2 cells [3] = experiment: TUNEL assay (flow cytometry), MiaPaCa-2; details: control 1.5%
Procedure: TUNEL assay. Apoptosis was measured by flow cytometry using a terminal deoxynucleotidyl transferase-mediated deoxyuridine triphosphate nick-end labeling (“TUNEL”) assay. Cells were treated with LY293111 for the appropriate period of time, then digested with trypsin-EDTA, washed with ice-cold PBS twice, and fixed in 10% paraformaldehyde on ice for 20 minutes. Cells were then washed with PBS, permeabilized with 70% ethanol for at least 4 hours, washed again with PBS and incubated with 2.5 units of terminal deoxynucleotidyl transferase (TdT enzyme) and 100 pmol Br-dUTP in DNA labeling solution for one hour at 37° C. Cells were then rinsed twice, resuspended in 0.1 ml fluorescein labeled anti-BrdU antibody solution in the dark for 30 minutes. Then 0.5 ml propidium iodide/RNase A solution was added, and the cells analyzed by flow cytometry at 488 nm excitation.

[4] = tested on: HPAF pancreatic cancer cell line; experiment: [3H]-thymidine incorporation (DNA synthesis), HPAF; details: for proliferation (thymidine incorporation), % control / proliferation, % control (time course): mean±SEM
Procedure: (§1) Cell culture. The following pancreatic cancer cell lines were used: MiaPaCa-2 and PANC-1 (poorly-differentiated); Capan-1 and Capan-2 (well-differentiated); and HPAF and AsPC-1 (pleomorphic). These were purchased from American Type Culture Collection (Rockville, Md.). PANC-1 and MiaPaCa-2 were grown in DMEM media; HPAF and AsPC-1 were grown in MEM media; and Capan-1 and Capan-2 were grown in-McCoy's media. Media were supplemented with 10% FBS, and the cells were grown as monolayers in a humidified atmosphere of […] and 5% CO2 at 37° C. The cells were regularly seeded into 75 cm^2 flask with media changed every other day. For experiments, cells were grown to 80% confluence, digested with trypsin-EDTA, and plated either in 12 or 24-well plates at a concentration of 50,000/ml, as appropriate.
(§2) DNA synthesis by [^3H]-Thymidine incorporation. Cells were plated in 12 or 24-well plates. After reaching 70% confluence, they were incubated in serum-free media for 24 hours, which was then replaced with fresh serum-free media with or without the appropriate concentration of leukotriene B4 receptor antagonist LY293111 (62.5-1000 nM), LTB4 (100-400 nM), or both. After the appropriate period of culture, cellular DNA synthesis was assayed by adding 0.5 μCi/well of [^3H]-methyl-thymidine and incubating for another 2 hours. Then, the cells were washed twice with PBS, fixed with 10% trichloroacetic acid (“TCA”) for 30 minutes, and solubilized by adding 0.4 M NaOH to each well. Radioactivity, indicating incorporation of ^3H-thymidine into DNA, was measured by adding a scintillation cocktail and counting on a scintillation counter (LKB RackBeta, Wallac, Turku, Finland)

[5] = tested on: Capan-1 pancreatic cancer cell line; experiment: [3H]-thymidine incorporation (DNA synthesis), Capan-1; details: mean±SEM; for proliferation (thymidine incorporation), % control: 24 hours
Procedure: as §1, §2

MiaPaCa-2 cells [6] = experiment: DNA fragmentation assay (agarose gel), MiaPaCa-2; details: MiaPaCa-2, 250, 500 and 1000 nM for 48 hours; no ladder in control cells
Procedure: DNA fragmentation assay. For analysis of DNA fragmentation by agarose gel electrophoresis, treated pancreatic cancer cells were detached from 75 cm^2 flask with trypsin-EDTA, washed twice with PBS, resuspended in 1 ml lysis buffer (25 mM EDTA, 10 mM Tris, 0.5% Triton X-100, and 1% SDS), and freeze-thawed at −80° C. overnight. Then, an equal volume of PEG/NaCl stock solution was added to the lysates to give a final concentration of 0.25% PEG and 1 M NaCl, and the tubes were centrifuged at 13,200 g at 4° C. for 30 minutes. The supernatants containing fragmented small molecular weight DNA were then incubated with RNAse A (0.3 mg/ml) at 37° C. for one hour and then with […] proteinase K (10 mg/ml) for three hours. Samples were then extracted with phenol-chloroform and precipitated with 70% ethanol overnight. The pellets containing DNA were then resuspended in […] of TE buffer, subjected to electrophoresis on a 1.8% agarose gel containing ethidium bromide ([…]), visualized by UV illumination, and analyzed using a Molecular Analyst Gel Documentation system (Bio-rad Laboratories, Hercules, Calif.).

[7] = tested on: Capan-2 pancreatic cancer cell line; experiment: [3H]-thymidine incorporation (DNA synthesis), Capan-2; details: mean±SEM; for proliferation (thymidine incorporation), % control: 24 hours
Procedure: as §1, §2

[8] = tested on: PANC-1 pancreatic cancer cell line; experiment: [3H]-thymidine incorporation (DNA synthesis), PANC-1; details: mean±SEM; for proliferation (thymidine incorporation), % control: 24 hours
Procedure: as §1, §2

CCCc1c(OCCCOc2cc(O)c(-c3ccc(F)cc3)cc2CC)cccc1Oc1ccccc1C(=O)O [LY293111, 2-(2-propyl-3-(3-(2-ethyl-4-(4-fluorophenyl)-5-hydroxyphenoxy)propoxy)-phenoxy)benzoic acid]
Bcl-2 expression (western blot) [1]: inhibited expression
morphological changes (phase-contrast microscopy) [2]: marked morphological changes
apoptosis (TUNEL) (MiaPaCa-2 cells [3]; MiaPaCa-2, 250 nM LY293111 for 24 hours): 12.6%
apoptosis (TUNEL) (MiaPaCa-2 cells [3]; MiaPaCa-2, 500 nM LY293111 for 24 hours): 18.6%
decrease of proliferation ([4]; HPAF (FIG. 6B), LY293111 250 nM, 24 hours): 50%
proliferation with combination of LTB4 and LY293111 ([4]; HPAF, 250 nM LY293111 + 100 nM LTB4, 24 hours): restored to almost the control level
proliferation (thymidine incorporation), % control ([4]; HPAF, LY293111 62.5 nM, 24 hours): 103.6 ± 21.8 % control
proliferation (thymidine incorporation), % control ([4]; HPAF, LY293111 125 nM, 24 hours): 97.6 ± 24.5 % control
proliferation (thymidine incorporation), % control ([4]; HPAF, LY293111 250 nM, 24 hours): 49.3 ± 9.0 % control
proliferation, % control (time course) ([4]; HPAF, LY293111 500 nM, 6 h): 67.5 ± 11.6 % control
proliferation, % control (time course) ([4]; HPAF, LY293111 500 nM, 12 h): 35.7 ± 8.9 % control
proliferation, % control (time course) ([4]; HPAF, LY293111 500 nM, 24 h): 12.4 ± 3.3 % control
proliferation (thymidine incorporation), % control ([4]; HPAF, LY293111 500 nM, 24 hours): 10.3 ± 3.0 % control
proliferation (thymidine incorporation), % control ([4]; HPAF, LY293111 1000 nM, 24 hours): 2.3 ± 1.4 % control
proliferation (thymidine incorporation), % control ([5]; Capan-1, LY293111 62.5 nM): 99.1 ± 4.8 % control
proliferation (thymidine incorporation), % control ([5]; Capan-1, LY293111 125 nM): 56.9 ± 4.9 % control
proliferation (thymidine incorporation), % control ([5]; Capan-1, LY293111 250 nM): 16.4 ± 2.0 % control
proliferation, % control (time course) ([5]; Capan-1, LY293111 500 nM, 6 h): 70.5 ± 8.7 % control
proliferation, % control (time course) ([5]; Capan-1, LY293111 500 nM, 12 h): 44.5 ± 10.2 % control
proliferation, % control (time course) ([5]; Capan-1, LY293111 500 nM, 24 h): 15.7 ± 3.4 % control
proliferation (thymidine incorporation), % control ([5]; Capan-1, LY293111 500 nM): 15.7 ± 3.4 % control
proliferation (thymidine incorporation), % control ([5]; Capan-1, LY293111 1000 nM): 0.2 ± 0.3 % control
DNA fragmentation (apoptosis) (MiaPaCa-2 cells [6]): distinctive DNA ladder
proliferation (thymidine incorporation), % control ([7]; Capan-2, LY293111 62.5 nM): 95.4 ± 8.7 % control
proliferation (thymidine incorporation), % control ([7]; Capan-2, LY293111 125 nM): 67.3 ± 6.8 % control
proliferation (thymidine incorporation), % control ([7]; Capan-2, LY293111 250 nM): 51.2 ± 5.8 % control
proliferation, % control (time course) ([7]; Capan-2, LY293111 500 nM, 6 h): 57.8 ± 4.3 % control
proliferation, % control (time course) ([7]; Capan-2, LY293111 500 nM, 12 h): 32.1 ± 5.6 % control
proliferation, % control (time course) ([7]; Capan-2, LY293111 500 nM, 24 h): 10.9 ± 6.0 % control
proliferation (thymidine incorporation), % control ([7]; Capan-2, LY293111 500 nM): 15.8 ± 9.6 % control
proliferation (thymidine incorporation), % control ([7]; Capan-2, LY293111 1000 nM): 8.9 ± 2.1 % control
proliferation (thymidine incorporation), % control ([8]; PANC-1, LY293111 62.5 nM): 89.4 ± 4.4 % control
proliferation (thymidine incorporation), % control ([8]; PANC-1, LY293111 125 nM): 65.2 ± 3.8 % control
proliferation, % control (time course) ([8]; PANC-1, LY293111 500 nM, 6 h): 60.2 ± 6.5 % control
proliferation, % control (time course) ([8]; PANC-1, LY293111 500 nM, 12 h): 48.9 ± 5.3 % control
proliferation, % control (time course) ([8]; PANC-1, LY293111 500 nM, 24 h): 13.6 ± 1.0 % control
proliferation (thymidine incorporation), % control ([8]; PANC-1, LY293111 500 nM): 12.4 ± 3.1 % control
proliferation (thymidine incorporation), % control ([8]; PANC-1, LY293111 1000 nM): 5.6 ± 1.0 % control
